Drawing on PMC7180948, “New Insights into 4-Anilinoquinazolines as Inhibitors of Cardiac Troponin I–Interacting Kinase (TNNi3K)” (Molecules, 2020), this text covers inhibition for one molecule.

Common to all, as to assay: biochemical
Common to all, as to parameters: KINOMEscan competition binding panel (Eurofins DiscoverX), single concentration, % inhibition
Holding throughout (details): read-out: 7 at 1 µM % inhibition

The target of one assay is ABL2 (Homo sapiens, UniProt P42684). In a few lines:
(§1)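 Kinome-wide profiling (KINOMEscan, >400 human kinases) was run at 1 µM compound.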

In a further assay the target is T1, ADCK3 (Homo sapiens, UniProt Q8NI60).
T1 construct: gene COQ8A
T1 sequence (Q8NI60 whole entry): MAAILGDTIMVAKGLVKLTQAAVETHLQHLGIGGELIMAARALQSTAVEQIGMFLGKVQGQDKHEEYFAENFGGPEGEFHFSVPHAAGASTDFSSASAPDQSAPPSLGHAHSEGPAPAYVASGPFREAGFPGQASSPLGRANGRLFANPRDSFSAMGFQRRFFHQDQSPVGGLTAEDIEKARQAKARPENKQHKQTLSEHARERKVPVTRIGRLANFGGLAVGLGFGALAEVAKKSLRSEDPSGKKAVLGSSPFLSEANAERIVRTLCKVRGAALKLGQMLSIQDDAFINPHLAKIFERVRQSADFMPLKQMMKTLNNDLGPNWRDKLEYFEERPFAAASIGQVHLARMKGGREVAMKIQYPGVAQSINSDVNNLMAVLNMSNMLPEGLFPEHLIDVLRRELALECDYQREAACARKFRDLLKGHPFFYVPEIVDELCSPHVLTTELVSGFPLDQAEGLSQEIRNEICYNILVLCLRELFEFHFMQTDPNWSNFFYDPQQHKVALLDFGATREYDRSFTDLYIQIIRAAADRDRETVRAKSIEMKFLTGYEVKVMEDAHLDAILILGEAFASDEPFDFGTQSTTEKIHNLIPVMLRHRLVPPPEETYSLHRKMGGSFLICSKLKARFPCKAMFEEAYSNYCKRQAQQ
In a few lines:
as §1

Another assay deals with AKT3 (Homo sapiens, UniProt Q9Y243). In a few lines:
as §1

In another assay the target is T2, ARK5 (Homo sapiens, UniProt O60285).
T2 construct: gene NUAK1
In a few lines: as §1

The next assay has as its target CSNK1G2 (Homo sapiens, UniProt P78368). In a few lines: as §1
For another assay, the target named is CSNK2A1 (Homo sapiens, UniProt P68400). In a few lines:
as §1

Assay [1] has as its target EGFR(L747-S752del, P753S) (Homo sapiens, UniProt P00533, DEL747-752/P753S). In a few lines:
as §1

In the next assay the target is FGFR3(G697C) (Homo sapiens, UniProt P22607, G697C). In a few lines: as §1
Sequence of FGFR3(G697C) (P22607 whole entry G697C): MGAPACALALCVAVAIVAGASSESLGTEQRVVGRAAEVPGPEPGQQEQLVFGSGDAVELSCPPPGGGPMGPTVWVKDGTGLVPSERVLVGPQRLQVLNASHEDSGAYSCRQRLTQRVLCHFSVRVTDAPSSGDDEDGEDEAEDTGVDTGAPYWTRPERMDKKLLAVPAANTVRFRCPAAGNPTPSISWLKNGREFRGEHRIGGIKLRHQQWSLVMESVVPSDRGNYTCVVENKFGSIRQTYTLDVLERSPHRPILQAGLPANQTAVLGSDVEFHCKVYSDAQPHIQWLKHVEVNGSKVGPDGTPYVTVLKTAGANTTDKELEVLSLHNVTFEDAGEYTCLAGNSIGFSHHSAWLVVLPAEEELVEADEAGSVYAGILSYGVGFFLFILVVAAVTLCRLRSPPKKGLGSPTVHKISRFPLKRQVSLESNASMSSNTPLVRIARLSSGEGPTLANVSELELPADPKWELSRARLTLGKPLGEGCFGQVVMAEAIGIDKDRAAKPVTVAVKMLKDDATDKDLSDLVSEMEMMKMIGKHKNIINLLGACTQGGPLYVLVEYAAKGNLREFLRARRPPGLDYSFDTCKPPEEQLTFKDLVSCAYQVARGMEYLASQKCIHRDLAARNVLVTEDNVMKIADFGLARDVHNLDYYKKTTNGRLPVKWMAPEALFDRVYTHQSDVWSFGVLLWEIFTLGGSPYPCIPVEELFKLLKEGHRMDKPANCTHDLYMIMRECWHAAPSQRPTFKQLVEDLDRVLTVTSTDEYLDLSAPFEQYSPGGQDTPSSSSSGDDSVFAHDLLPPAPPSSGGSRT
A further assay concerns the target FLT3(ITD) (Homo sapiens, UniProt P36888, ITD). In a few lines:
as §1

The target of the next assay is FLT4 (Homo sapiens, UniProt P35916). A digest of the protocol:
as §1

The target of the next assay is FYN (Homo sapiens, UniProt P06241). In a few lines:
as §1

The target in the next assay is HIPK2 (Homo sapiens, UniProt Q9H2X6). A digest of the protocol:
as §1

Another assay concerns the target MAP4K3 (Homo sapiens, UniProt Q8IVH8). A digest of the protocol: as §1
A further assay has as its target MET (Homo sapiens, UniProt P08581). A digest of the protocol: as §1
In another assay the target is T3, MRCKA (Homo sapiens, UniProt Q5VT25).
T3 construct: gene CDC42BPA
In a few lines:
as §1

A further assay has as its target MYLK4 (Homo sapiens, UniProt Q86YV6). In a few lines: as §1
In another assay the target is PAK2 (Homo sapiens, UniProt Q13177). A digest of the protocol: as §1
A further assay deals with PIK3CB (Homo sapiens, UniProt P42338). In a few lines: as §1
The next assay concerns the target T4, PIK4CB (Homo sapiens, UniProt Q9UBF8).
T4 construct: gene PI4KB
A digest of the protocol: as §1

The target of a further assay is PIM3 (Homo sapiens, UniProt Q86V86). In a few lines: as §1
Another assay concerns the target PRKD3 (Homo sapiens, UniProt O94806). In a few lines: as §1
A further assay concerns the target RIPK1 (Homo sapiens, UniProt Q13546). A digest of the protocol: as §1
The target of another assay is T5, RIPK5 (Homo sapiens, UniProt Q6XUX3).
T5 construct: gene DSTYK
In a few lines: as §1

The target in the next assay is TNNI3K (Homo sapiens, UniProt Q59H18). A digest of the protocol:
as §1

Molecules are shown by their SMILES.

Sequence of PRKD3 (O94806 whole entry): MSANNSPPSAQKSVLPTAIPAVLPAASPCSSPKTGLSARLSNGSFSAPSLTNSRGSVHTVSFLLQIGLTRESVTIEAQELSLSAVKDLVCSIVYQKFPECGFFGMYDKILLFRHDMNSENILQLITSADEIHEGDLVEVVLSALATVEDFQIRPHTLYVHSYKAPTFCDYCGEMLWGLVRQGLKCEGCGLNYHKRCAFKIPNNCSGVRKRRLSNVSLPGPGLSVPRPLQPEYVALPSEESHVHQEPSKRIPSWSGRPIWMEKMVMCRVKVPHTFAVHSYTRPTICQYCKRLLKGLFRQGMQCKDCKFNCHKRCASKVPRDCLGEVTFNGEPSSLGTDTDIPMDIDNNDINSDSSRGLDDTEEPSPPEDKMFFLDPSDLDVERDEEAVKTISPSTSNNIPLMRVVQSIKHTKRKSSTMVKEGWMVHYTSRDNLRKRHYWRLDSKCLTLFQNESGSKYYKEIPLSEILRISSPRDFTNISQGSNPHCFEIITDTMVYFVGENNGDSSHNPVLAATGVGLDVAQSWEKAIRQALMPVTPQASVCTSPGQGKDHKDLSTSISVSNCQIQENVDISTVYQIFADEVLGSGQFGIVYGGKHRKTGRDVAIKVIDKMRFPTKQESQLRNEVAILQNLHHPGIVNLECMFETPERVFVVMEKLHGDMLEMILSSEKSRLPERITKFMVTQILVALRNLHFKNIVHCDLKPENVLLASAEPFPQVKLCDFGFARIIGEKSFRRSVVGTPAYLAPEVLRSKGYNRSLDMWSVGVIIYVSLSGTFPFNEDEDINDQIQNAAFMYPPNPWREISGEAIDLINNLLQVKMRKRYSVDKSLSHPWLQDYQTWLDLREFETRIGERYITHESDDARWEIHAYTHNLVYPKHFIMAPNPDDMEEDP
Sequence of CSNK1G2 (P78368 whole entry): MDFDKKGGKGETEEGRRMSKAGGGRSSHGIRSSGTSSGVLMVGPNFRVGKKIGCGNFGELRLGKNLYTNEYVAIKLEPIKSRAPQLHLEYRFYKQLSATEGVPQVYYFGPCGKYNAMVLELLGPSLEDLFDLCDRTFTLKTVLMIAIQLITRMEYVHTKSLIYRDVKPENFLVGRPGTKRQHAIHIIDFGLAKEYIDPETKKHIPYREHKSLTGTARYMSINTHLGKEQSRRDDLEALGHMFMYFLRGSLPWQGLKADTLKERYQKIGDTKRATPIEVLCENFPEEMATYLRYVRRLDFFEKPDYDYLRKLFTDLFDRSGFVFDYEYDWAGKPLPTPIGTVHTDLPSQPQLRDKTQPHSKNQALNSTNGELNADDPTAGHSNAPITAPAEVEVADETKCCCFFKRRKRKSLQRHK
Sequence of HIPK2 (Q9H2X6 whole entry): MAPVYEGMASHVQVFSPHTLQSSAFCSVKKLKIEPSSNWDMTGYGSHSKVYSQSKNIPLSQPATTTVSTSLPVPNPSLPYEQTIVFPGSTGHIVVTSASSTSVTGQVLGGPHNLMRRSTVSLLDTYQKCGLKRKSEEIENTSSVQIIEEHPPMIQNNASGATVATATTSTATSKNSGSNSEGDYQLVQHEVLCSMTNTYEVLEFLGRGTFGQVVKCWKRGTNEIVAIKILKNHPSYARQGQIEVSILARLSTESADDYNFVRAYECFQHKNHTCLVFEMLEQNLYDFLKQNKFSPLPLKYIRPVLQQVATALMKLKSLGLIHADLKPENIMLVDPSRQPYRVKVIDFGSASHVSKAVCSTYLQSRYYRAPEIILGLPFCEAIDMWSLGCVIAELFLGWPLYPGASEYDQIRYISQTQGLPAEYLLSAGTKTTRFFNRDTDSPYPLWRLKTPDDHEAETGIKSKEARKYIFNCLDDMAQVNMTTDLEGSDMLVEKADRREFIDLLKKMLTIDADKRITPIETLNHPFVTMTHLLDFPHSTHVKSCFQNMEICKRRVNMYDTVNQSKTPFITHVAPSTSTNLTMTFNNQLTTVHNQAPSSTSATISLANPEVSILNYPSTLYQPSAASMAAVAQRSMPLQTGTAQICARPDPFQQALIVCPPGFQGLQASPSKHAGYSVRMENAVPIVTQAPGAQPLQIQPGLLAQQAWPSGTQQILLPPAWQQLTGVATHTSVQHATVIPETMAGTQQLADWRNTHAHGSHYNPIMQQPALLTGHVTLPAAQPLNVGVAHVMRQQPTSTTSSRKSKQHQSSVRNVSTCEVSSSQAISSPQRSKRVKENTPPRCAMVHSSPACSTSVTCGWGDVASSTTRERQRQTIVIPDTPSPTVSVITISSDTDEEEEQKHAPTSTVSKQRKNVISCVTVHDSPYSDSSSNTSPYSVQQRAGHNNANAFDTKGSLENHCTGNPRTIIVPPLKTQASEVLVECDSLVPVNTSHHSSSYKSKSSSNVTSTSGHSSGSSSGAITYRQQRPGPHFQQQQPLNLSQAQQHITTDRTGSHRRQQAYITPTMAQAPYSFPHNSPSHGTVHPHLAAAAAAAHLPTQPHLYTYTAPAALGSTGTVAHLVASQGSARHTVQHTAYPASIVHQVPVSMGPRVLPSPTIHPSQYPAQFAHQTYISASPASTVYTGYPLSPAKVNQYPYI
Sequence of TNNI3K (Q59H18 whole entry): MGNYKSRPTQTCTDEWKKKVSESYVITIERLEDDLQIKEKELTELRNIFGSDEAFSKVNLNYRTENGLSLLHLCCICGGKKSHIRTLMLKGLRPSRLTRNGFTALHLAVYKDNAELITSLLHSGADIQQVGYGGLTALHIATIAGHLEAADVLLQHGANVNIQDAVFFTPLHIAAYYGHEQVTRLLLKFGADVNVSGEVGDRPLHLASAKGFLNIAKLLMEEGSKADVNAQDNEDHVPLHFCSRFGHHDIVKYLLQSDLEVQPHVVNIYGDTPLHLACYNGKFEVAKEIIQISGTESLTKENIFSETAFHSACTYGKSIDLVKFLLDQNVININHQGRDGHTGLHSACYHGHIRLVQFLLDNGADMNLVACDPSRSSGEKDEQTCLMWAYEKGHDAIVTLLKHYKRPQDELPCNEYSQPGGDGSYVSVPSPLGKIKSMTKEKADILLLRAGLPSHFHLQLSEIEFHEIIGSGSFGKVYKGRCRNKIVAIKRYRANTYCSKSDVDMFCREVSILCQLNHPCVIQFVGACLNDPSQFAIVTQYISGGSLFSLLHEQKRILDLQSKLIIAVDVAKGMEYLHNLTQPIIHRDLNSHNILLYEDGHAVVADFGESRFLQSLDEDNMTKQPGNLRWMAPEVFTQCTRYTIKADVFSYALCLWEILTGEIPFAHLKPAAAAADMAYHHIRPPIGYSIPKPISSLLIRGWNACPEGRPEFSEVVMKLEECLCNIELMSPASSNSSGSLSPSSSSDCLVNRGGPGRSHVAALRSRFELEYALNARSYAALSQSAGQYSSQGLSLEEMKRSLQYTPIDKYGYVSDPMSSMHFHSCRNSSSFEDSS

For orientation: inhibition means the percentage by which the read-out fell short of the control. In the case of `CNS(=O)(=O)c1ccc(N(C)C)c(Nc2ncnc3cc(OC)c(OC)cc23)c1` [compound 7, 3-((6,7-dimethoxyquinazolin-4-yl)amino)-4-(dimethylamino)-N-methylbenzenesulfonamide], the inhibition at 1 µM on ABL2 was determined as 0%; at ADCK3, 50%; on AKT3, 0%; at ARK5, 0%; at CSNK1G2 it was 0%; at CSNK2A1, 0%. Besides, the inhibition at 1 µM (in [1]; on FGFR3(G697C); on FLT3(ITD); at FLT4; on FYN; on HIPK2) was 0% in each case. For the same molecule, the inhibition at 1 µM worked out at 0% on MAP4K3; 3% at MET; 0% at MRCKA; 0% on MYLK4; 0% at PAK2; 2% at PIK3CB. Also, the inhibition at 1 µM on PIK4CB worked out at 14%; on PIM3, 0%; at PRKD3 it was 7%; at RIPK1 it was 0%; on RIPK5 it was 49%; on TNNI3K it was 62%.
